Reference: patent publication US8404692B2, “Pyrimidin-4-yl-3, 4-dihydro-2H-pyrrolo [1,2A] pyrazin-1-one compounds” (Cyclacel Limited, priority 2005, dated 2013)

Columns and labels:
CDK2/E = CDK2/E (Homo sapiens, UniProt P24941); assay: In vitro kinase assay CDK2/E; assay type: biochemical; conditions: in vitro kinase data
Method: The compounds of the invention above were investigated for their ability to inhibit the enzymatic activity of various protein kinases. This was achieved by measurement of incorporation of radioactive phosphate from ATP into appropriate polypeptide substrates. Recombinant protein kinases and kinase complexes were produced or obtained commercially. Assays were performed using 96-well plates and appropriate assay buffers (typically 25 mM β-glycerophosphate, 20 mM MOPS, 5 mM EGTA, 1 mM DTT, 1 mM […], pH 7.4), into which were added 2-4 μg of active enzyme with appropriate substrates. The reactions were initiated by addition of Mg/ATP mix (15 mM MgCl2+100 μM ATP with 30-50 kBq per well of [γ-^32P]-ATP) and mixtures incubated as required at 30° C. Reactions were stopped on ice, followed by filtration through p81 filterplates or GF/C filterplates (Whatman Polyfiltronics, Kent, UK). After washing 3 times with 75 mM aq orthophosphoric acid, plates were dried, scintillant added and incorporated radioactivity measured in a scintillation counter (TopCount, Packard Instruments, Pangbourne, Berks, UK). Compounds for kinase assay were made up as 10 mM stocks in DMSO and diluted into 10% DMSO in assay buffer. […]

aurora-A (human) = biological target: T1, aurora-A (human) (Homo sapiens, UniProt O14965); assay: Aurora-A (human) kinase assay; assay type: biochemical; conditions: read-out: Activity (Aurora A activity, IC50 grading)
T1 construct: purchased Upstate, Dundee, UK
T1 sequence (O14965 1-403): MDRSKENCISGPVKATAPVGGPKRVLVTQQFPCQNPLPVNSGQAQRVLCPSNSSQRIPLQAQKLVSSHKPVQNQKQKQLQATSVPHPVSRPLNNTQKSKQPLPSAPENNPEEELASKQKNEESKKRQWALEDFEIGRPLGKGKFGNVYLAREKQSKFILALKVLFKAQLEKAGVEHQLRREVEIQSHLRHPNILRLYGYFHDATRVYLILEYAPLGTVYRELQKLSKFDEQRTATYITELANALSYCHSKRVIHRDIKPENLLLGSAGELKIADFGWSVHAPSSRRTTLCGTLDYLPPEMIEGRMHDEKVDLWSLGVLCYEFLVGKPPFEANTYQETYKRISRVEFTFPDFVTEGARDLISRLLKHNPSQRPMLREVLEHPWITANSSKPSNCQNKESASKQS
In short: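 Radiometric assay measuring [γ-32P] transfer from 100 μM ATP to 500 μM Kemptide by 2-5 ng active human aurora-A, pH 7.5 buffer, 30 min at 30° C. Incorporated label captured on P81 filters and counted by scintillation; IC50 from curve fitting.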

MiaPaCa = assay: MTT cytotoxicity assay MiaPaCa; assay type: cell-based; conditions: Homo sapiens, MIA PaCa-2; MiaPaCa cells, 96-h MTT
Method: (§1) The compounds of the invention were subjected to a standard cellular proliferation assay using cell lines […] and MiaPaCa (obtained from The European Collection of Cell Cultures). […] C.; Thomas, D. G.; Darling, J. L. Anti Cancer Drugs 1996, 7, 331-8; Loveland, B. E.; Johns, T. G.; Mackay, I. R.; Vaillant, F.; Wang, Z. X.; Hertzog, P. J. Biochemistry International 1992, 27, 501-10). In short: cells were seeded into 96-well plates according to doubling time and incubated overnight at 37° C. […] MTT was made up as a stock of 5 mg/mL in cell media and filter-sterilised. Media was removed from cells followed by a wash with 200 μL PBS. MTT solution was then added at 20 μL per well and incubated in the dark at 37° C. for 4 h. MTT solution was removed and cells again washed with 200 μL PBS. MT dye was solubilised with […] per well of DMSO with agitation. Absorbance was read at 540 nm and data analysed using curve-fitting software (GraphPad Prism version 3.00 for Windows, GraphPad Software, San Diego Calif. USA) to determine IC50 values (concentration of test compound which inhibits cell growth by 50%).

A2780 = assay: MTT cytotoxicity assay A2780; assay type: cell-based; conditions: Homo sapiens; A2780 cells, 96-h MTT
Method: as §1

[1] = system: nuclear phospho-Histone H3 and/or MPM2 staining; assay: Cellomics Arrayscan assay for mitotic index (PH3 and MPM2 staining); assay type: cell-based; conditions: for IC50: IC50 of phosphorylated Histone H3 staining normalised using MPM2 staining, read-out: MI (Cellomics) PH3/MPM2 IC50*; for MI (Cellomics) MPM2 % of Control**: cells stained with MPM2 Ab after treatment, as % of MPM2 stained cells treated with vehicle (DMSO)
Method: The percentage of cells with nuclear phospho-Histone H3 and/or MPM2 staining were determined in 96-well plate assays using the Cellomics Arrayscan Mitotic Index HitKit protocol (Cellomics Inc). Briefly, cells were plated at 10^4 cells per well and incubated for 16-18 h at 37° C. Compounds were added and the cells incubated for the appropriate time before a 15 min fixation in 3.7% formaldehyde in wash buffer (Cellomics Inc.). Cells were permeabilised in 0.2% Triton in wash buffer for 15 min, washed, then incubated with primary antibodies that specifically recognise mitotic epitopes; rabbit anti-phosphohistone H3 (Upstate 06570) or mouse anti-phospho-Ser/Thr-Pro MPM2 (Upstate 05-368). After a 1 h incubation cells were washed and incubated with secondary FITC-conjugated anti-mouse and/or TRITC-conjugated anti-rabbit secondary antibodies (Jackson laboratories) and Hoescht dye. After a further 1 h incubation the cells were washed, then the plate was analysed using a Cellomics Arrayscan II automated fluorescent microscopy system to detect nuclear fluorescent staining. Data for 2000 cells per well were stored and the percentage of cells expressing mitotic epitopes compared to total cells (stained with Hoescht dye) was calculated using the Cellomics mitotic index algorithm.

human CDK7/cyclin H = human CDK7/cyclin H (Homo sapiens, UniProt P50613); assay: CDK 7 and 9 assays: CDK7/H; assay type: biochemical; conditions: in vitro kinase data
Method: The compounds of the invention above were investigated for their ability to inhibit the enzymatic activity of various protein kinases. This was achieved by measurement of incorporation of radioactive phosphate from ATP into appropriate polypeptide substrates. Recombinant protein kinases and kinase complexes were produced or obtained commercially. Assays were performed using 96-well plates and appropriate assay buffers (typically 25 mM β-glycerophosphate, 20 mM MOPS, 5 mM EGTA, 1 mM DTT, 1 mM […], pH 7.4), into which were added 2-4 μg of active enzyme with appropriate substrates. The reactions were initiated by addition of Mg/ATP mix (15 mM MgCl2+100 μM ATP with 30-50 kBq per well of [γ-^32P]-ATP) and mixtures incubated as required at 30° C. Reactions were stopped on ice, followed by filtration through p81 filterplates or GF/C filterplates (Whatman Polyfiltronics, Kent, UK). After washing 3 times with 75 mM aq orthophosphoric acid, plates were dried, scintillant added and incorporated radioactivity measured in a scintillation counter (TopCount, Packard Instruments, Pangbourne, Berks, UK). Compounds for kinase assay were made up as 10 mM stocks in DMSO and diluted into 10% DMSO in assay buffer. Data was analysed using curve-fitting software (GraphPad Prism version 3.00 for Windows, GraphPad Software, San Diego Calif. USA) to determine IC50 values (concentration of test compound which inhibits kinase activity by 50%).
CTD peptide substrate (biotinyl-Ahx-(Tyr-Ser-Pro-Thr-Ser-Pro-Ser)4-NH2; 1-2 mg/mL) and recombinant human CDK7/cyclin H, CDK9/cyclin T1, or CDK9/cyclin K (0.5-2 μg) were incubated for 45 min at 30° C. in the presence of varying amounts of test compound in 20 mM MOPS pH 7.2, 25 mM β-glycerophosphate, 5 mM EGTA, 1 mM DTT, 1 mM sodium vanadate, 15 mM MgCl2, and 100 μM ATP (containing a trace amount of ^32PγATP) in a total volume of 25 μL in a 96-well microtiter plate. […] Microscint 40 scintillation liquid (50 μL) was added to each well, and the amount of ^32P incorporation for each sample was measured using a Packard Topcount microplate scintillation counter.

Sequence of human CDK7/cyclin H (P50613 whole entry): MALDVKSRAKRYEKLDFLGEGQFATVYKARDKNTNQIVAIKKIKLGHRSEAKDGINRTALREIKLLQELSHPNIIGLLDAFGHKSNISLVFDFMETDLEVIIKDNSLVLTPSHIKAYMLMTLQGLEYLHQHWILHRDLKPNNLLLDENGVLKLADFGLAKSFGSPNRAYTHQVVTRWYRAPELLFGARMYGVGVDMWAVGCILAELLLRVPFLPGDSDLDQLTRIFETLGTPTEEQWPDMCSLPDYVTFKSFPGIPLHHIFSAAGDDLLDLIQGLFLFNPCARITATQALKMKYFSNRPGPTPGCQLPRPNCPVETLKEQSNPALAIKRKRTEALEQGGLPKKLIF
Sequence of human CDK7/cyclin H (P51946 whole entry partner): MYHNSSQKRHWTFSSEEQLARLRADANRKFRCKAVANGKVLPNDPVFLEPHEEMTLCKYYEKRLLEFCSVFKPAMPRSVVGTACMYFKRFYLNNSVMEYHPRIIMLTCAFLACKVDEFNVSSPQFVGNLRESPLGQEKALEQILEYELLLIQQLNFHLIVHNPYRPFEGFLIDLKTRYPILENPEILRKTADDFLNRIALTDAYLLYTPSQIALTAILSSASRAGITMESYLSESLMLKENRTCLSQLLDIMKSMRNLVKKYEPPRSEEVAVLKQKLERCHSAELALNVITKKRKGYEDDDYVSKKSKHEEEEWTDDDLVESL

Row | SMILES | Ki (CDK2/E) | IC50 (aurora-A (human)) | IC50 (MiaPaCa) | IC50 (A2780) | IC50 [1] | MI (Cellomics) MPM2 % of Control** [1] | Ki (human CDK7/cyclin H)
1 | Cc1c(-c2ccnc(Nc3ccc(F)cc3)n2)c(C)n2c1C(=O)NCC2 [Example I-1, 7-[2-(4-Fluoro-phenylamino)-pyrimidin-4-yl]-6,8-dimethyl-3,4-dihydro-2H-pyrrolo[1,2-a]pyrazin-1-one] | 1.13 µM | < 1 µM | > 10 µM | 4.47 µM | 16.3 µM | 239% | 2.99 µM
2 | Cc1c(-c2ccnc(Nc3ccc(N4CCOCC4)cc3)n2)c(C)n2c1C(=O)NCC2 [Example I-2, 6,8-Dimethyl-7-[2-(4-morpholin-4-yl-phenylamino)-pyrimidin-4-yl]-3,4-dihydro-2H-pyrrolo[1,2-a]pyrazin-1-one] | – | < 1 µM | 1.8 µM | 0.575 µM | 9.2 µM | 333% | 3.41 µM
3 | COc1cc(Nc2nccc(-c3c(C)c4n(c3C)CCNC4=O)n2)ccc1N1CCOCC1 [Example I-3, 7-[2-(3-Methoxy-4-morpholin-4-yl-phenylamino)-pyrmidin-4-yl]-6,8-dimethyl-3,4-dihydro-2H-pyrrolo[1,2-a]pyrazin-1-one] | – | < 0.1 µM | 1.85 µM | 0.75 µM | 4.74 µM | 317% | 2.79 µM
4 | CNC(=O)CCc1cccc(Nc2nccc(-c3c(C)c4n(c3C)CCNC4=O)n2)c1 [Example I-112, 3-{3-[4-(6,8-Dimethyl-1-oxo-1,2,3,4-tetrahydro-pyrrolo[1,2-a]pyrazin-7-yl)-pyrimidin-2-ylamino]-phenyl}-N-methyl-propionamide] | – | < 0.1 µM | – | – | – | – | –
5 | Cc1c(-c2ccnc(Nc3cccc(CCC(=O)N(C)C)c3)n2)c(C)n2c1C(=O)NCC2 [Example I-113, 3-{3-[4-(6,8-Dimethyl-1-oxo-1,2,3,4-tetrahydro-pyrrolo[1,2-a]pyrazin-7-yl)-pyrimidin-2-ylamino]-phenyl}-N,N-dimethyl-propionamide] | – | < 0.1 µM | – | – | – | – | –
6 | COc1cc(C(=O)NC2CCN(C)CC2)ccc1Nc1nccc(-c2c(C)c3n(c2C)CCNC3=O)n1 [Example I-114, 4-[4-(6,8-Dimethyl-1-oxo-1,2,3,4-tetrahydro-pyrrolo[1,2-a]pyrazin-7-yl)-pyrimidin-2-ylamino]-3-methoxy-N-(1-methyl-piperidin-4-yl)-benzamide] | – | < 10 µM | – | – | – | – | –
7 | Cc1c(-c2ccnc(Nc3ccc(C(=O)NC4CCN(C)CC4)cc3)n2)c(C)n2c1C(=O)NCC2 [Example I-115, 4-[4-(6,8-Dimethyl-1-oxo-1,2,3,4-tetrahydro-pyrrolo[1,2-a]pyrazin-7-yl)-pyrimidin-2-ylamino]-N-(1-methyl-piperidin-4-yl)-benzamide] | – | < 0.1 µM | – | – | – | – | –
